molecular target: T1, Xenopus laevis Aurora B/INCENP complex (Xenopus laevis, UniProt Q6DE08); assay: Aurora-B kinase assay (radioactive enzyme inhibition assay); format: biochemical; details: test substance at 1 μM; percentage of the positive control (maximum value without test substance)
T1 construct: equipped at the N-terminal position with a GST tag (amino acids 60-361); GST (N, cleaved yes); made in house; host or cells: E. coli BL21 (DE3)
Excerpt: Example Aurora-B Kinase Assay
A radioactive enzyme inhibition assay was developed using E. coli-expressed recombinant Xenopus laevis Aurora B wild-type protein equipped at the N-terminal position with a GST tag (amino acids 60-361) in a complex with Xenopus laevis INCENP (amino acids 790-847), which is obtained from bacteria and purified. In equivalent manner a Xenopus laevis Aurora B mutant (G96V) in a complex with Xenopus laevis INCENP^790-847 may also be used.
Expression and Purification
The coding sequence for Aurora-B^60-361 from Xenopus laevis is cloned into a modified version of pGEX-6T (Amersham Biotech) via BamHI and SalI cutting sites. The vector contains two cloning cassettes which are separated by a ribosomal binding site, allowing bi-cistronic expression. In this configuration Xenopus laevis Aurora B is expressed by the first cassette, and the Xenopus laevis INCENP^790-847 is expressed by the second cassette. The resulting vector is pAUB-IN^847.
First of all the E. coli strain BL21 (DE3) is co-transformed with pUBS520 helper plasmid and pAUB-IN^847, after which protein expression is induced using 0.3 mM IPTG at an OD600 of 0.45-0.7. The expression is then continued for approx. 12-16 h at 23-25° C. with agitation.
The bacteria are then removed by centrifuging and the pellet is lysed in lysis buffer (50 mM Tris/Cl pH 7.6, 300 mM NaCl, 1 mM DTT, 1 mM EDTA, 5% glycerol, Roche Complete Protease Inhibitor tablets) using ultrasound, using 20-30 mL lysis buffer per liter of E. coli culture. The lysed material is freed from debris by centrifugation (12000 rpm, 45-60 min, JA20 rotor). The supernatant is incubated with 300 μL of equilibrated GST Sepharose Fast Flow (Amersham Biosciences) per liter of E. coli culture for 4-5 h at 4° C. Then the column material is washed with 30 volumes of lysis buffer and then equilibrated with 30 volumes of cleavage buffer (50 mM Tris/Cl pH 7.6, 150 mM NaCl, 1 mM DTT, 1 mM EDTA). To cleave the GST tag from Aurora B, 10 units of Prescission Protease (Amersham Biosciences) are used per milligram of substrate and the mixture is incubated for 16 h at 4° C. The supernatant which contains the cleavage product is loaded onto a 6 mL Resource Q column (Amersham Biosciences) equilibrated with ion exchange buffer (50 mM Tris/Cl pH 7.6, 150 mM NaCl, 1 mM DTT, 1 mM EDTA). The Aurora B/INCENP complex is caught as it flows through, then concentrated and loaded onto a Superdex 200 size exclusion chromatography (SEC) column equilibrated with SEC buffer (10 mM Tris/Cl pH 7.6, 150 mM NaCl, 1 mM DTT, 1 mM EDTA). Fractions which contain the AuroraB/INCENP complex are collected and concentrated using Vivaspin concentrators (molecular weight exclusion 3000-5000 Da) to a final concentration of 12 mg/mL. Aliquots (e.g. 240 ng/μL) for kinase assays are transferred from this stock solution into freezing buffer (50 mM Tris/Cl pH 8.0, 150 mM NaCl, 0.1 mM EDTA, 0.03% Brij-35, 10% glycerol, 1 mM DTT) and stored at −80° C.
Test substances are placed in a polypropylene dish (96 wells, Greiner #655 201), in order to cover a concentration frame of 10 μM-0.0001 μM. The final concentration of DMSO in the assay is 5%. 30 μL of protein mix (50 mM tris/Cl pH 7.5, 25 mM MgCl2, 25 mM NaCl, 167 μM ATP, 10 ng Xenopus laevis Aurora B/INCENP complex in freezing buffer) are pipetted into the 10 μl of test substance provided in 25% DMSO and this is incubated for 15 min at RT. Then 10 μL of peptide mix (100 mM tris/Cl pH 7.5, 50 mM MgCl2, 50 mM NaCl, 5 μM NaF, 5 μM DTT, 1 μCi gamma-P33-ATP [Amersham], 50 μM substrate peptide [biotin-[…] or multimers thereof, or biotin-[…] or multimers thereof, or biotin-[…]]) are added. The reaction is incubated for 75 min (ambient temperature) and stopped by the addition of 180 μL of 6.4% trichloroacetic acid and incubated for 20 min on ice. […]

T1 sequence (Q6DE08 60-361): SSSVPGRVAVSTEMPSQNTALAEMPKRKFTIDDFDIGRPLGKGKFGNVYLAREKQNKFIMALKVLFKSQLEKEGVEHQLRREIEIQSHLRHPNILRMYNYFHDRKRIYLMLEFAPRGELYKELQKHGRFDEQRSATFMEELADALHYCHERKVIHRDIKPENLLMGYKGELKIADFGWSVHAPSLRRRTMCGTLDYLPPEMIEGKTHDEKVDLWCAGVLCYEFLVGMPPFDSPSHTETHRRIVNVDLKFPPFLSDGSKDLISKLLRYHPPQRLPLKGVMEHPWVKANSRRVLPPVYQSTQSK
T1 sequence (O13024 790-847 partner limits assumed): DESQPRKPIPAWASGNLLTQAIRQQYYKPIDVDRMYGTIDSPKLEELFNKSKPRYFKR

Row | SMILES | remaining activity at 1 µM
1 | CN(C)Cc1ccc(N/C(=C2\C(=O)Nc3cc(-c4cccc(C(N)=O)c4)ccc32)c2ccccc2)cc1 [Example 68] | 18.1%
2 | CN(C)Cc1ccc(N/C(=C2\C(=O)Nc3cc(-c4ccc(N)nc4)ccc32)c2ccccc2)cc1 [Example 66] | 18.3%
3 | CCN1CCN(C(=O)c2ccc(N/C(=C3\C(=O)Nc4cc(-c5ccc(NC(C)C)nc5)ccc43)c3ccccc3)cc2)CC1 [Example 113] | 4.25%
4 | CN(C)Cc1ccc(N/C(=C2\C(=O)Nc3cc(-c4cnc(NCC(F)F)nc4)ccc32)c2ccccc2)cc1 [Example 47] | 1.59%
5 | CC(C)Nc1ncc(-c2ccc3c(c2)NC(=O)/C3=C(\Nc2ccc(N3CCN(C)CC3)cc2)c2ccccc2)cn1 [Example 92] | 3.85%
6 | CN(C)Cc1ccc(N/C(=C2\C(=O)Nc3cc(-c4ccc(S(C)(=O)=O)cc4)ccc32)c2ccccc2)cc1 [Example 12] | 40%
7 | CC(C)Nc1ncc(-c2ccc3c(c2)NC(=O)/C3=C(\Nc2ccc3c(c2)CN(C)C3)c2ccccc2)cn1 [Example 94] | 5.83%
8 | CC(C)Nc1ccc(-c2ccc3c(c2)NC(=O)/C3=C(\Nc2ccc(C(C)(C)C(=O)N3CC[C@@H](N(C)C)C3)cc2)c2ccccc2)cn1 [Example 101] | 3.62%
9 | CN(C)Cc1ccc(N/C(=C2\C(=O)Nc3cc(-c4cnc5ccccc5c4)ccc32)c2ccccc2)cc1 [Example 40] | 34.7%
10 | Cc1cnccc1-c1ccc2c(c1)NC(=O)/C2=C(\Nc1ccc(CN(C)C)cc1)c1ccccc1 [Example 20] | 107%
11 | Cc1cc(N/C(=C2\C(=O)Nc3cc(-c4cnc(NC(C)C)nc4)ccc32)c2ccccc2)ccn1 [Example 87] | 2.67%
12 | CC(=O)Nc1ccc(-c2ccc3c(c2)NC(=O)/C3=C(\Nc2ccc(CN(C)C)cc2)c2ccccc2)cc1 [Example 72] | 3.37%
13 | CCCNc1ncc(-c2ccc3c(c2)NC(=O)/C3=C(\Nc2ccc(CN(C)C)cc2)c2ccccc2)cn1 [Example 50] | 2.79%
14 | CC(=O)Nc1ccc(-c2ccc3c(c2)NC(=O)/C3=C(\Nc2ccc(CN(C)C)cc2)c2ccccc2)cn1 [Example 62] | 1.96%
15 | COc1ccc(-c2ccc3c(c2)NC(=O)/C3=C(\Nc2ccc(CN(C)C)cc2)c2ccccc2)cn1 [Example 70] | 17.3%
16 | CCN1CCC2(CCN(C(=O)c3ccc(N/C(=C4\C(=O)Nc5cc(-c6ccc(NC(C)C)nc6)ccc54)c4ccccc4)cc3OC)C2)C1 (centres unmarked) [Example 104] | 1.71%
17 | CN(C)Cc1ccc(N/C(=C2\C(=O)Nc3cc(-c4ccccc4NS(C)(=O)=O)ccc32)c2ccccc2)cc1 [Example 23] | 70.6%
18 | CC(=O)c1cncc(-c2ccc3c(c2)NC(=O)/C3=C(\Nc2ccc(CN(C)C)cc2)c2ccccc2)c1 [Example 41] | 13.5%
19 | CN(C)Cc1ccc(N/C(=C2\C(=O)Nc3cc(-c4ccc(NC5CCC5)nc4)ccc32)c2ccccc2)cc1 [Example 56] | 5.45%
20 | CN(C)Cc1ccc(N/C(=C2\C(=O)Nc3cc(-c4cccc(-n5cccn5)c4)ccc32)c2ccccc2)cc1 [Example 64] | 13.4%
21 | COc1cc(N/C(=C2\C(=O)Nc3cc(-c4ccc(NC(C)C)nc4)ccc32)c2ccccc2)ccc1C(=O)N(C)C1CCN(C)CC1 [Example 112] | 1.7%
22 | COc1cc(N/C(=C2\C(=O)Nc3cc(-c4ccc(NC(C)C)nc4)ccc32)c2ccccc2)ccc1C(=O)N1CCC(N(C)C)CC1 [Example 107] | 1.66%
23 | CC(C)Nc1ncc(-c2ccc3c(c2)NC(=O)/C3=C(\Nc2ccc(OCCN3CCCC3)cc2)c2ccccc2)cn1 [Example 88] | 3.13%
24 | CC(C)Nc1ccc(-c2ccc3c(c2)NC(=O)/C3=C(\Nc2ccc(C(C)(C)C(=O)N(C)C3CCN(C)CC3)cc2)c2ccccc2)cn1 [Example 103] | 3.84%
25 | COc1cc(N/C(=C2\C(=O)Nc3cc(-c4ccc(NC(C)C)nc4)ccc32)c2ccccc2)ccc1C(=O)N1CCN(C(C)C)CC1 [Example 106] | 2.94%
26 | COc1cc(N/C(=C2\C(=O)Nc3cc(-c4ccc(NC(C)C)nc4)ccc32)c2ccccc2)ccc1C(=O)N1CCN(C)CC1 [Example 109] | 2.08%
27 | COC(=O)c1ccc(N/C(=C2\C(=O)Nc3cc(-c4cnc(NC(C)C)nc4)ccc32)c2ccccc2)cc1 [Example 84] | 65.2%

Next, values leading:

Row | remaining activity at 1 µM | SMILES
28 | 2.26% | CC(C)Nc1ccc(-c2ccc3c(c2)NC(=O)/C3=C(\Nc2ccc(C(=O)NC3CCN(C)CC3)cc2)c2ccccc2)cn1 [Example 140]
29 | 3.25% | CC(C)Nc1ccc(-c2ccc3c(c2)NC(=O)/C3=C(\Nc2ccc(C(=O)N3CCN[C@H](C)C3)cc2)c2ccccc2)cn1 [Example 115]
30 | 2.75% | CC(C)Nc1ccc(-c2ccc3c(c2)NC(=O)/C3=C(\Nc2ccc(C(=O)N3CCCN(C)CC3)cc2)c2ccccc2)cn1 [Example 120]
31 | 1.85% | O=C(C#Cc1ccc2c(c1)NC(=O)/C2=C(\Nc1ccc(CN2CCCC2)cc1)c1ccccc1)NCC(F)F [Example 168]
32 | 0.55% | CC(C)Nc1ccc(-c2ccc3c(c2)NC(=O)/C3=C(\Nc2ccc(C(=O)N3CCN[C@@H](C)C3)cc2)c2ccccc2)cn1 [Example 133]
33 | 2.07% | CN(C)Cc1ccc(N/C(=C2\C(=O)Nc3cc(C#CC(=O)NC4CC4)ccc32)c2ccccc2)cc1 [Example 159]
34 | 0.88% | CC(C)Nc1ccc(-c2ccc3c(c2)NC(=O)/C3=C(\Nc2ccc(C(=O)N(C)C3CCN(C)CC3)cc2)c2ccccc2)cn1 [Example 139]
35 | 2.4% | CN(C)Cc1ccc(N/C(=C2\C(=O)Nc3cc(C#CC(=O)NC4CCC4)ccc32)c2ccccc2)cc1 [Example 165]
36 | 3.38% | CC(C)Nc1ccc(-c2ccc3c(c2)NC(=O)/C3=C(\Nc2ccc(C(=O)N3C[C@@H](C)N[C@@H](C)C3)cc2)c2ccccc2)cn1 [Example 124]
37 | 7.53% | CNC(=O)C#Cc1cc2c(cc1F)/C(=C(/Nc1ccc(CN(C)C)cc1)c1ccccc1)C(=O)N2 [Example 158]
38 | 1.65% | CCNC(=O)C#Cc1ccc2c(c1)NC(=O)/C2=C(\Nc1ccc(CN(C)C)cc1)c1ccccc1 [Example 162]
39 | 0.67% | CC(C)Nc1ccc(-c2ccc3c(c2)NC(=O)/C3=C(\Nc2ccc(C(=O)N3CC[C@@H](N(C)C)C3)cc2)c2ccccc2)cn1 [Example 137]
40 | 3.17% | CN1CCN(c2ccc(N/C(=C3\C(=O)Nc4cc(C#CC(=O)NC5CCCC5)ccc43)c3ccccc3)cc2)CC1 [Example 164]
41 | 1.43% | CC(C)Nc1ccc(-c2ccc3c(c2)NC(=O)/C3=C(\Nc2ccc(C(=O)NCCN(C)C)cc2)c2ccccc2)cn1 [Example 134]
42 | 4.33% | CCNC(=O)C#Cc1cc2c(cc1S(=O)(=O)N1CC(F)(F)C1)/C(=C(/Nc1ccc(N3CCN(C)CC3)cc1)c1ccccc1)C(=O)N2 [Example 152]
43 | 1.83% | CCNC(=O)C#Cc1ccc2c(c1)NC(=O)/C2=C(\Nc1ccc(CN(C)C)c(Cl)c1)c1ccccc1 [Example 177]
44 | 4.34% | CC(C)Nc1ccc(-c2ccc3c(c2)NC(=O)/C3=C(\Nc2ccc(C(=O)N3CCC(N(C)C)CC3)cc2)c2ccccc2)cn1 [Example 128]

From US8853420B2, “Compounds” (Boehringer Ingelheim International GmbH, priority 2008, dated 2014)
